The NIST ThermoML archive (doi:10.1016/j.fluid.2018.10.006)
± gives the expanded uncertainty stated by the source.

Conditions: Fluid (supercritical or subcritical phases), Coaxial cylinder method

CCCCCC [hexane]
Conditions | thermal conductivity [W/m/K]
511.55 K, 5000 kPa | 0.07163 ± 0.0034
511.55 K, 5100 kPa | 0.07163 ± 0.0034
511.55 K, 5300 kPa | 0.07217 ± 0.0034
511.55 K, 5500 kPa | 0.0724 ± 0.0034
511.55 K, 5800 kPa | 0.07283 ± 0.0034
511.55 K, 6000 kPa | 0.07313 ± 0.0034
511.55 K, 6200 kPa | 0.07344 ± 0.0034
511.55 K, 6400 kPa | 0.07374 ± 0.0034
511.55 K, 6600 kPa | 0.07406 ± 0.0034
511.55 K, 6800 kPa | 0.07437 ± 0.0035
511.55 K, 6900 kPa | 0.07456 ± 0.0035
511.55 K, 7100 kPa | 0.07481 ± 0.0035
511.55 K, 7200 kPa | 0.07501 ± 0.0035
511.55 K, 7300 kPa | 0.07513 ± 0.0035
511.55 K, 7500 kPa | 0.07618 ± 0.0035
511.55 K, 7800 kPa | 0.07658 ± 0.0036
511.55 K, 8000 kPa | 0.07685 ± 0.0036
511.55 K, 8200 kPa | 0.07712 ± 0.0036
511.55 K, 8300 kPa | 0.07719 ± 0.0036
511.55 K, 8400 kPa | 0.07733 ± 0.0036
511.55 K, 8500 kPa | 0.07746 ± 0.0036
511.55 K, 8600 kPa | 0.0776 ± 0.0036
511.55 K, 8700 kPa | 0.07767 ± 0.0036
511.55 K, 9000 kPa | 0.07803 ± 0.0036
511.55 K, 9100 kPa | 0.07815 ± 0.0036
511.55 K, 9200 kPa | 0.07822 ± 0.0036
511.55 K, 9300 kPa | 0.07828 ± 0.0036
511.55 K, 9400 kPa | 0.07837 ± 0.0036
511.55 K, 9700 kPa | 0.0787 ± 0.0036
511.55 K, 10000 kPa | 0.07902 ± 0.0037
511.79 K, 1600 kPa | 0.03961 ± 0.002
511.79 K, 1800 kPa | 0.04006 ± 0.0021
511.79 K, 1900 kPa | 0.04052 ± 0.0021
511.79 K, 2000 kPa | 0.041 ± 0.0021
511.79 K, 2090 kPa | 0.04133 ± 0.0021
511.79 K, 2100 kPa | 0.04148 ± 0.0021
511.79 K, 2110 kPa | 0.04151 ± 0.0021
511.79 K, 2200 kPa | 0.04198 ± 0.0021
511.79 K, 2300 kPa | 0.0427 ± 0.0022
511.79 K, 2400 kPa | 0.04354 ± 0.0022
511.79 K, 2500 kPa | 0.04428 ± 0.0022
511.79 K, 2600 kPa | 0.04543 ± 0.0023
511.79 K, 2700 kPa | 0.04664 ± 0.0023
511.79 K, 2800 kPa | 0.04819 ± 0.0024
511.79 K, 2817 kPa | 0.04857 ± 0.0024
511.79 K, 2911 kPa | 0.05076 ± 0.0025
511.79 K, 2958 kPa | 0.052 ± 0.0025
511.79 K, 2987 kPa | 0.05281 ± 0.0026
511.79 K, 3000 kPa | 0.05337 ± 0.0026
511.79 K, 3049 kPa | 0.05564 ± 0.0027
511.79 K, 3076 kPa | 0.05734 ± 0.0028
511.79 K, 3093 kPa | 0.05872 ± 0.0028
511.79 K, 3101 kPa | 0.05933 ± 0.0029
511.79 K, 3113 kPa | 0.06039 ± 0.0029
511.79 K, 3121 kPa | 0.06126 ± 0.0029
511.79 K, 3133 kPa | 0.06272 ± 0.003
511.79 K, 3143 kPa | 0.06414 ± 0.003
511.79 K, 3151 kPa | 0.06537 ± 0.0031
511.79 K, 3156 kPa | 0.06613 ± 0.0031
511.79 K, 3163 kPa | 0.06743 ± 0.0032
511.79 K, 3167 kPa | 0.06811 ± 0.0033
511.79 K, 3169 kPa | 0.06851 ± 0.0033
511.79 K, 3172 kPa | 0.06906 ± 0.0034
511.79 K, 3175 kPa | 0.06962 ± 0.0034
511.79 K, 3177 kPa | 0.07014 ± 0.0035
511.79 K, 3179 kPa | 0.07048 ± 0.0035
511.79 K, 3181 kPa | 0.07092 ± 0.0035
511.79 K, 3183 kPa | 0.07134 ± 0.0036
511.79 K, 3185 kPa | 0.07166 ± 0.0037
511.79 K, 3186 kPa | 0.07193 ± 0.0037
511.79 K, 3188 kPa | 0.07227 ± 0.0037
511.79 K, 3189 kPa | 0.07257 ± 0.0038
511.79 K, 3190 kPa | 0.07273 ± 0.0038
511.79 K, 3191 kPa | 0.07304 ± 0.0038
511.79 K, 3192 kPa | 0.07319 ± 0.0039
511.79 K, 3193 kPa | 0.07344 ± 0.0039
511.79 K, 3194 kPa | 0.07367 ± 0.0039
511.79 K, 3195 kPa | 0.07382 ± 0.0039
511.79 K, 3196 kPa | 0.07398 ± 0.004
511.79 K, 3197 kPa | 0.07424 ± 0.004
511.79 K, 3198 kPa | 0.07446 ± 0.004
511.79 K, 3199 kPa | 0.07463 ± 0.0041
511.79 K, 3200 kPa | 0.07479 ± 0.0041
511.79 K, 3202 kPa | 0.07528 ± 0.0041
511.79 K, 3204 kPa | 0.07561 ± 0.0043
511.79 K, 3205 kPa | 0.07578 ± 0.0043
511.79 K, 3206 kPa | 0.07595 ± 0.0042
511.79 K, 3209 kPa | 0.07635 ± 0.0043
511.79 K, 3212 kPa | 0.07676 ± 0.0043
511.79 K, 3214 kPa | 0.077 ± 0.0043
511.79 K, 3216 kPa | 0.07724 ± 0.0043
511.79 K, 3219 kPa | 0.07745 ± 0.0042
511.79 K, 3221 kPa | 0.07749 ± 0.0042
511.79 K, 3223 kPa | 0.07756 ± 0.0041
511.79 K, 3226 kPa | 0.07759 ± 0.0041
511.79 K, 3231 kPa | 0.07766 ± 0.0039
511.79 K, 3234 kPa | 0.07766 ± 0.0037
511.79 K, 3236 kPa | 0.07745 ± 0.0037
511.79 K, 3237 kPa | 0.07745 ± 0.0037
511.79 K, 3240 kPa | 0.07732 ± 0.0036
511.79 K, 3243 kPa | 0.07697 ± 0.0036
511.79 K, 3246 kPa | 0.07663 ± 0.0036
511.79 K, 3247 kPa | 0.07629 ± 0.0036
511.79 K, 3251 kPa | 0.07496 ± 0.0035
511.79 K, 3253 kPa | 0.07496 ± 0.0035
511.79 K, 3256 kPa | 0.07463 ± 0.0035
511.79 K, 3257 kPa | 0.07431 ± 0.0035
511.79 K, 3264 kPa | 0.07399 ± 0.0036
511.79 K, 3265 kPa | 0.07367 ± 0.0036
511.79 K, 3269 kPa | 0.07336 ± 0.0036
511.79 K, 3270 kPa | 0.07336 ± 0.0036
511.79 K, 3276 kPa | 0.07336 ± 0.0035
511.79 K, 3278 kPa | 0.07336 ± 0.0035
511.79 K, 3280 kPa | 0.07336 ± 0.0035
511.79 K, 3285 kPa | 0.07336 ± 0.0035
511.79 K, 3291 kPa | 0.07243 ± 0.0034
511.79 K, 3293 kPa | 0.07243 ± 0.0034
511.79 K, 3295 kPa | 0.07243 ± 0.0034
511.79 K, 3300 kPa | 0.07213 ± 0.0034
511.79 K, 3301 kPa | 0.07183 ± 0.0034
511.79 K, 3306 kPa | 0.07183 ± 0.0034
511.79 K, 3310 kPa | 0.07153 ± 0.0034
511.79 K, 3313 kPa | 0.07123 ± 0.0034
511.79 K, 3315 kPa | 0.07123 ± 0.0034
511.79 K, 3319 kPa | 0.07122 ± 0.0034
511.79 K, 3321 kPa | 0.07122 ± 0.0033
511.79 K, 3325 kPa | 0.07122 ± 0.0034
511.79 K, 3327 kPa | 0.07122 ± 0.0034
511.79 K, 3330 kPa | 0.07122 ± 0.0034
511.79 K, 3332 kPa | 0.07122 ± 0.0034
511.79 K, 3335 kPa | 0.07122 ± 0.0033
511.79 K, 3340 kPa | 0.07122 ± 0.0033
511.79 K, 3346 kPa | 0.07122 ± 0.0033
511.79 K, 3350 kPa | 0.07123 ± 0.0033
511.79 K, 3353 kPa | 0.07123 ± 0.0033
511.79 K, 3355 kPa | 0.07123 ± 0.0033
511.79 K, 3360 kPa | 0.07123 ± 0.0033
511.79 K, 3365 kPa | 0.07064 ± 0.0033
511.79 K, 3367 kPa | 0.07064 ± 0.0033
511.79 K, 3368 kPa | 0.07064 ± 0.0033
511.79 K, 3370 kPa | 0.07064 ± 0.0033
511.79 K, 3375 kPa | 0.07064 ± 0.0033
511.79 K, 3380 kPa | 0.07064 ± 0.0033
511.79 K, 3385 kPa | 0.07064 ± 0.0033
511.79 K, 3390 kPa | 0.07064 ± 0.0033
511.79 K, 3395 kPa | 0.07064 ± 0.0033
511.79 K, 3400 kPa | 0.07064 ± 0.0033
511.79 K, 3410 kPa | 0.07064 ± 0.0033
511.79 K, 3420 kPa | 0.07065 ± 0.0033
511.79 K, 3440 kPa | 0.07065 ± 0.0033
511.79 K, 3460 kPa | 0.07065 ± 0.0033
511.79 K, 3500 kPa | 0.07041 ± 0.0033
511.79 K, 3600 kPa | 0.06993 ± 0.0033
511.79 K, 3657 kPa | 0.06978 ± 0.0033
511.79 K, 3700 kPa | 0.06973 ± 0.0033
511.79 K, 3750 kPa | 0.06973 ± 0.0033
511.79 K, 3800 kPa | 0.06973 ± 0.0033
511.79 K, 3850 kPa | 0.06973 ± 0.0033
511.79 K, 3900 kPa | 0.06973 ± 0.0033
511.79 K, 3950 kPa | 0.06975 ± 0.0033
511.79 K, 3980 kPa | 0.06975 ± 0.0033
511.79 K, 4000 kPa | 0.06988 ± 0.0033
511.79 K, 4030 kPa | 0.06995 ± 0.0033
511.79 K, 4100 kPa | 0.07011 ± 0.0033
